US10294202B2, “Pyrrolidinones as herbicides” (FMC Corporation, priority 2013, dated 2019)

How the values were obtained:
speedwell = assay: Test D pre-/postemergence herbicide test; format: in vivo, Veronica persica; conditions: for Plant response rating: Postemergence, Speedwell, scale 0 to 100; for Plant response rating, Speedwell: Preemergence, scale 0 to 100 (0 no effect, 100 complete control)
Excerpt: Seeds of plant species selected from bluegrass (annual bluegrass, Poa annua), blackgrass (Alopecurus myosuroides), canarygrass (littleseed canarygrass, Phalaris minor), chickweed (common chickweed, Stellaria media), galium (catchweed bedstraw, Galium aparine), bromegrass, downy (downy bromegrass, Bromus tectorum), field poppy (Papaver rhoeas), field violet (Viola arvensis), foxtail, green (green foxtail, Setaria viridis), deadnettle (henbit deadnettle, Lamium amplexicaule), ryegrass, Italian (Italian ryegrass, Lolium multiflorum), kochia (Kochia scoparia), lambsquarters (Chenopodium album), oilseed rape (Brassica napus), pigweed (Amaranthus retroflexus), chamomile (scentless chamomile, Matricaria inodora), Russian thistle (Salsola kali), speedwell (bird's-eye speedwell, Veronica persica), barley, spring (spring barley, Hordeum vulgare), wheat, spring (spring wheat, Triticum aestivum), buckwheat, wild (wild buckwheat, Polygonum convolvulus), mustard, wild (wild mustard, Sinapis arvensis), oat, wild (wild oat, Avena fatua), radish, wild (wild radish, Raphanus raphanistrum), […]), barley, winter (winter barley, Hordeum vulgare), and wheat, winter (winter wheat, Triticum aestivum) were planted into a silt loam soil and treated preemergence with test chemicals formulated in a non-phytotoxic solvent mixture which included a surfactant. At the same time, these species were planted in pots containing Redi-Earth® planting medium (Scotts Company, 14111 Scottslawn Road, Marysville, Ohio 43041) comprising spaghnum peat moss, vermiculite, wetting agent and starter nutrients and treated with postemergence applications of the test chemicals formulated in the same manner. Plants ranged in height from 2 to 18 cm (1- to 4-leaf stage). Treated plants and controls were maintained in a controlled growth environment for 7 to 21 days after which time all species were compared to controls and visually evaluated. Plant response ratings, summarized in Table D, are based on a scale of 0 to 100 where 0 is no effect and 100 is complete control. A dash (-) response means no test result.

corn = assay: Test E preemergence herbicide test; format: in vivo, Zea mays; parameters: key: 0 = no effect, 100 = complete control
Excerpt: (§1) Seeds of plant species selected from corn (Zea mays), soybean (Glycine max), velvetleaf (Abutilon theophrasti), lambsquarters (Chenopodium album), wild poinsettia (Euphorbia heterophylla), pigweed, palmer (palmer pigweed, Amaranthus palmeri), waterhemp (common waterhemp, Amaranthus rudis), surinam grass (Brachiaria decumbens), crabgrass, large (large crabgrass, Digitaria sanguinalis), crabgrass, Brazil (Brazilian crabgrass, Digitaria horizontalis), panicum, fall (fall panicum, Panicum dichotomiflorum), foxtail, giant (giant foxtail, Setaria faberii), foxtail, green (green foxtail, Setaria viridis), goosegrass (Eleusine indica), johnsongrass (Sorghum halepense), ragweed (common ragweed, Ambrosia elatior), barnyardgrass (Echinochloa crus-galli), sandbur (southern sandbur, Cenchrus echinatus), arrowleaf […] rhombifolia), ryegrass, Italian (Italian ryegrass, Lolium multiflorum), dayflower, VA (Virginia dayflower, Commelina virginica), field bindweed (Convolvulus arvensis), morningglory (Ipomoea coccinea), nightshade (eastern black nightshade, Solanum ptycanthum), kochia (Kochia scoparia), nutsedge, yellow (yellow nutsedge, Cyperus esculentus), cocklebur (common cocklebur, Xanthium strumarium), smartweed (ladysthumb smartweed, Polygonum Persicaria) and beggarticks (hairy beggarticks, Bidens pilosa), were planted into a silt loam soil and treated preemergence with test chemicals formulated in a non-phytotoxic solvent mixture which included a surfactant. Treated plants and controls were maintained in a greenhouse for 21 days, after which time all species were compared to controls and visually evaluated. Plant response ratings, summarized in Table E, are based on a scale of 0 to 100 where 0 is no effect and 100 is complete control. A dash (-) response means no test result.

waterhemp = assay: Test E preemergence herbicide test; format: in vivo, Amaranthus rudis; parameters: key: 0 = no effect, 100 = complete control
Excerpt: as §1

watergrass, late = assay: Test F flood (paddy) test; format: in vivo, Echinochloa oryzicola; conditions: 21 d, scale 0-100
Method in brief: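 Visual injury ratings (0 no effect to 100 complete control) were taken 21 d after treatment against untreated controls. Compounds went directly into paddy water held 3 cm above soil, applied at the 2.0–2.5-leaf stage in sterilized Tama silt loam under a 30/27 °C, 16-h greenhouse regime.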

Row | SMILES | Plant response rating (speedwell; 31 g ai/ha) | Plant response rating (speedwell; 62 g ai/ha) | Plant response rating (speedwell; 125 g ai/ha) | Plant response rating (speedwell; 250 g ai/ha) | Plant response rating, Speedwell (speedwell; 62 g ai/ha) | Plant response rating, Speedwell (speedwell; 125 g ai/ha) | Plant response rating, Speedwell (speedwell; 31 g ai/ha) | Plant response rating, Speedwell (speedwell; 250 g ai/ha) | Plant response rating, Corn (corn; 31 g ai/ha) | Plant response rating, Corn (corn; 62 g ai/ha) | Plant response rating, Corn (corn; 125 g ai/ha) | Plant response rating, Corn (corn; 250 g ai/ha) | Plant response rating, Waterhemp (waterhemp; 31 g ai/ha) | Plant response rating, Waterhemp (waterhemp; 62 g ai/ha) | Plant response rating, Waterhemp (waterhemp; 125 g ai/ha) | Plant response rating, Waterhemp (waterhemp; 250 g ai/ha) | Plant response rating, Watergrass, Late (watergrass, late; 125 g ai/ha) | Plant response rating, Watergrass, Late (watergrass, late; 250 g ai/ha) | Plant response rating, Watergrass, Late (watergrass, late; 500 g ai/ha) | other results
1 | O=C1NCC(c2ccc(F)c(F)c2)C1C(=O)Nc1ccccc1C(F)(F)F (racemic) [Compound 6] | 0 | 0 | 0 | 15 | 10 | 30 | 10 | 50 | – | – | – | – | – | – | – | – | – | – | – | Plant response rating (speedwell; 16 g ai/ha): 0; Plant response rating, Speedwell (speedwell; 16 g ai/ha): 0
2 | O=C1NCC(c2ccc(Cl)c(Cl)c2)C1C(=O)Nc1ccccc1F (racemic) [Compound 14] | – | – | – | – | – | – | – | – | 0 | 0 | 0 | 0 | 0 | 0 | 0 | 0 | – | – | – | Plant response rating, Corn (corn; 16 g ai/ha): 0; Plant response rating, Waterhemp (waterhemp; 16 g ai/ha): 0
3 | O=C1NCC(c2ccc(F)c(C(F)(F)F)c2)C1C(=O)Nc1cccc(F)c1F (racemic) [Compound 77] | – | – | – | – | 25 | 35 | 20 | 100 | – | – | – | – | – | – | – | – | – | – | – | –
4 | O=C1NCC(c2ccc(F)c(F)c2)C1C(=O)Nc1cccc(F)c1F (racemic) [Compound 101] | – | – | – | – | – | – | – | – | – | – | – | – | – | – | – | – | 75 | 85 | 85 | Plant response rating, Watergrass, Late (watergrass, late; 64 g ai/ha): 65
5 | O=C1NCC(c2ccc(C(F)(F)F)cc2)C1C(=O)Nc1cccc(F)c1F (racemic) [Compound 202] | 60 | 75 | 85 | 90 | 90 | 90 | 90 | 100 | 0 | 0 | 40 | 60 | 50 | 60 | 95 | 95 | – | – | – | –
6 | O=C1NCC(c2cccc(C(F)F)c2)C1C(=O)Nc1ccccc1F (racemic) [Compound 210] | – | – | – | – | – | – | – | – | – | – | – | – | – | – | – | – | 55 | 75 | 90 | –
7 | O=C1NCC(c2ccc(OC(F)F)cc2)C1C(=O)Nc1cccc(F)c1F (racemic) [Compound 350] | – | – | – | – | – | – | – | – | 0 | 0 | 0 | 0 | 0 | 0 | 0 | 35 | – | – | – | –
8 | O=C1NCCC1C(=O)N(c1ccc(F)c(F)c1)c1ccccc1F (stereo not drawn) [Compound 5, N-(3,4-difluorophenyl)-N-(2-fluorophenyl)-2-oxo-3-pyrrolidinecarboxamide] | – | – | – | – | – | – | – | – | – | – | – | – | – | – | – | – | 55 | 70 | 75 | Plant response rating, Watergrass, Late (watergrass, late; 1000 g ai/ha): 100; Plant response rating, Watergrass, Late (watergrass, late; 2000 g ai/ha): 100
9 | O=C1NCC(c2cc(F)c(F)cc2F)C1C(=O)Nc1cccc(F)c1F (stereo not drawn) [Compound 50] | – | – | – | – | 0 | 0 | 0 | – | – | – | – | – | – | – | – | – | – | – | – | Plant response rating (speedwell; 16 g ai/ha): 0; Plant response rating, Speedwell (speedwell; 16 g ai/ha): 0
10 | O=C1NCC(c2ccc(Cl)c(F)c2)C1C(=O)Nc1cccc(F)c1F (stereo not drawn) [Compound 52] | 20 | 25 | 40 | 70 | 90 | 100 | 90 | 100 | – | – | – | – | – | – | – | – | – | – | – | Plant response rating (speedwell; 16 g ai/ha): 20; Plant response rating, Speedwell (speedwell; 16 g ai/ha): 0
11 | O=C1NCC(c2ccc(C(F)(F)F)cc2)C1C(=O)Nc1cccc(F)c1F (stereo not drawn) [Compound 80, N-(2,3-difluorophenyl)-2-oxo-4-[4-(trifluoromethyl)phenyl]-3-pyrrolidinecarboxamide] | 60 | 70 | 70 | 65 | 85 | 85 | 10 | 100 | 0 | 0 | 0 | 30 | 20 | 30 | 50 | 60 | – | – | – | Plant response rating, Corn (corn; 16 g ai/ha): 0; Plant response rating, Waterhemp (waterhemp; 16 g ai/ha): 0
12 | O=C1NCC(c2ccc(C(F)(F)F)cc2)C1C(=O)Nc1ccccc1F (stereo not drawn) [Compound 231] | 60 | 70 | 75 | 75 | 80 | 100 | 75 | 100 | – | – | – | – | – | – | – | – | – | – | – | –
13 | CN1CC(c2ccc(F)c(F)c2)C(C(=O)Nc2cccc(F)c2F)C1=O (stereo not drawn) [Compound 303] | – | – | – | – | – | – | – | – | – | – | – | – | – | – | – | – | 95 | 100 | 100 | Plant response rating, Watergrass, Late (watergrass, late; 62 g ai/ha): 95
